Measurements as given in the supplement of paper PMC10307832.

What was measured:
Experiment in all cases: relative viability (nuclei count vs DMSO), 5 days (fraction); higher = more cells survive
4EGI-1 + Phenformin = compound: O=C(O)C(Cc1ccccc1[N+](=O)[O-])=NNc1nc(-c2ccc(Cl)c(Cl)c2)cs1 (mixture of isomers) [4EGI-1] + N=C(N)NC(=N)NCCc1ccccc1 [Phenformin] (partner 250 µM)
In short: (§1)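 Lung cancer cell lines were seeded in 1536-well plates and dosed by pin tool the next day, with either a single drug or a fixed anchor-drug dose combined with five library-drug doses (not always all listed) spaced in √10 steps. Five days later, one step fixed the cells and stained their nuclei (final 0.05% Triton X-100, 1% formaldehyde, 1 ug/ml Hoechst), and nuclei were counted on 4× images. Relative viability is the nuclei count in treated wells divided by the count in vehicle wells, and each value is the median of duplicate plates.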

XMD8-85 + Vorinostat = compound: CN1CCN(CC1)C2=CC(=C(C=C2)NC3=NC=C4C(=N3)N(C5=CC=CC=C5C(=O)N4C)C)OC [XMD8-85] + O=C(CCCCCCC(=O)Nc1ccccc1)NO [Vorinostat] (partner 1 µM)
In short: as §1

XMD8-85 + Bortezomib = compound: CN1CCN(CC1)C2=CC(=C(C=C2)NC3=NC=C4C(=N3)N(C5=CC=CC=C5C(=O)N4C)C)OC [XMD8-85] + CC(C)C[C@H](NC(=O)[C@H](Cc1ccccc1)NC(=O)c1cnccn1)B(O)O [Bortezomib] (partner 0.002 µM)
In short: as §1

4EGI-1 + AZD7762 = compound: O=C(O)C(Cc1ccccc1[N+](=O)[O-])=NNc1nc(-c2ccc(Cl)c(Cl)c2)cs1 (mixture of isomers) [4EGI-1] + NC(=O)Nc1cc(-c2cccc(F)c2)sc1C(=O)N[C@H]1CCCNC1 [AZD7762] (partner 0.2 µM)
In short: as §1

Row | Cell Line | relative viability (4EGI-1 + Phenformin; first compound 0.5 µM) | relative viability (4EGI-1 + Phenformin; first compound 5 µM) | relative viability (4EGI-1 + Phenformin; first compound 15.81 µM) | relative viability (4EGI-1 + Phenformin; first compound 50 µM) | relative viability (XMD8-85 + Vorinostat; first compound 0.08 µM) | relative viability (XMD8-85 + Vorinostat; first compound 0.253 µM) | relative viability (XMD8-85 + Vorinostat; first compound 0.8 µM) | relative viability (XMD8-85 + Vorinostat; first compound 2.53 µM) | relative viability (XMD8-85 + Vorinostat; first compound 8 µM) | relative viability (XMD8-85 + Bortezomib; first compound 0.08 µM) | relative viability (XMD8-85 + Bortezomib; first compound 0.253 µM) | relative viability (XMD8-85 + Bortezomib; first compound 0.8 µM) | relative viability (XMD8-85 + Bortezomib; first compound 2.53 µM) | relative viability (XMD8-85 + Bortezomib; first compound 8 µM) | relative viability (4EGI-1 + AZD7762; first compound 0.5 µM) | relative viability (4EGI-1 + AZD7762; first compound 1.581 µM) | relative viability (4EGI-1 + AZD7762; first compound 5 µM) | relative viability (4EGI-1 + AZD7762; first compound 15.81 µM) | relative viability (4EGI-1 + AZD7762; first compound 50 µM) | relative viability (4EGI-1 + Phenformin; first compound 1.581 µM)
1 | NCI-H3122 | 0.372 | 0.378 | 0.33 | 0.169 | 1.02 | 1.17 | 1.03 | 1.08 | 1.38 | 1.11 | 1.02 | 1.05 | 1.05 | 0.915 | 1.01 | 0.972 | 0.957 | 0.926 | 0.48 | –
2 | LOU-NH91 | 0.742 | 0.703 | 0.456 | 0.534 | 0.896 | 0.904 | 0.91 | 1.04 | 0.641 | 0.448 | 0.466 | 0.488 | 0.489 | 0.4 | 0.811 | – | 0.781 | 0.72 | 0.439 | –
3 | ChaGo-K-1 | 0.447 | 0.543 | 0.49 | 0.351 | 0.751 | 0.782 | 0.76 | 0.81 | 0.619 | 0.905 | 1.07 | 1.18 | 1.37 | 0.357 | 0.875 | 0.87 | 0.876 | 0.897 | 0.465 | 0.439
4 | NCI-H727 | 0.648 | 0.511 | 0.572 | 0.332 | 1.09 | 1.23 | 1.17 | 1.24 | 0.984 | 0.64 | 0.727 | 1.34 | 1.3 | 0.452 | 0.631 | 0.631 | 0.511 | 0.519 | 0.478 | 0.518
5 | NCI-H23 | 0.884 | 0.763 | 0.826 | 0.706 | 0.508 | 0.634 | 0.638 | 0.591 | 0.31 | 0.977 | 0.836 | 1.09 | 1.21 | 0.853 | 0.372 | – | 0.27 | 0.23 | 0.192 | –
